Common to all, as to experiment: biochemical
Parameters in all cases: KINOMEscan active site-directed competition binding assay (DiscoveRx), 456 kinases, per cent of control at 300 nM
Holding throughout (conditions): read-out: Percent of Control (%)

The target in one experiment is PAK2 (Homo sapiens, UniProt Q13177). Summed up:
(§1)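 Active site-directed competition binding (KINOMEscan) across a 456-kinase panel, compounds tested at 300 nmol/L.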

The target of another experiment is PIK3CA(H1047L) (Homo sapiens, UniProt P42336, H1047L). Summed up: as §1
The target of the next experiment is WNK3 (Homo sapiens, UniProt Q9BYP7). The gist of the method: as §1
Sequence of WNK3 (Q9BYP7 whole entry): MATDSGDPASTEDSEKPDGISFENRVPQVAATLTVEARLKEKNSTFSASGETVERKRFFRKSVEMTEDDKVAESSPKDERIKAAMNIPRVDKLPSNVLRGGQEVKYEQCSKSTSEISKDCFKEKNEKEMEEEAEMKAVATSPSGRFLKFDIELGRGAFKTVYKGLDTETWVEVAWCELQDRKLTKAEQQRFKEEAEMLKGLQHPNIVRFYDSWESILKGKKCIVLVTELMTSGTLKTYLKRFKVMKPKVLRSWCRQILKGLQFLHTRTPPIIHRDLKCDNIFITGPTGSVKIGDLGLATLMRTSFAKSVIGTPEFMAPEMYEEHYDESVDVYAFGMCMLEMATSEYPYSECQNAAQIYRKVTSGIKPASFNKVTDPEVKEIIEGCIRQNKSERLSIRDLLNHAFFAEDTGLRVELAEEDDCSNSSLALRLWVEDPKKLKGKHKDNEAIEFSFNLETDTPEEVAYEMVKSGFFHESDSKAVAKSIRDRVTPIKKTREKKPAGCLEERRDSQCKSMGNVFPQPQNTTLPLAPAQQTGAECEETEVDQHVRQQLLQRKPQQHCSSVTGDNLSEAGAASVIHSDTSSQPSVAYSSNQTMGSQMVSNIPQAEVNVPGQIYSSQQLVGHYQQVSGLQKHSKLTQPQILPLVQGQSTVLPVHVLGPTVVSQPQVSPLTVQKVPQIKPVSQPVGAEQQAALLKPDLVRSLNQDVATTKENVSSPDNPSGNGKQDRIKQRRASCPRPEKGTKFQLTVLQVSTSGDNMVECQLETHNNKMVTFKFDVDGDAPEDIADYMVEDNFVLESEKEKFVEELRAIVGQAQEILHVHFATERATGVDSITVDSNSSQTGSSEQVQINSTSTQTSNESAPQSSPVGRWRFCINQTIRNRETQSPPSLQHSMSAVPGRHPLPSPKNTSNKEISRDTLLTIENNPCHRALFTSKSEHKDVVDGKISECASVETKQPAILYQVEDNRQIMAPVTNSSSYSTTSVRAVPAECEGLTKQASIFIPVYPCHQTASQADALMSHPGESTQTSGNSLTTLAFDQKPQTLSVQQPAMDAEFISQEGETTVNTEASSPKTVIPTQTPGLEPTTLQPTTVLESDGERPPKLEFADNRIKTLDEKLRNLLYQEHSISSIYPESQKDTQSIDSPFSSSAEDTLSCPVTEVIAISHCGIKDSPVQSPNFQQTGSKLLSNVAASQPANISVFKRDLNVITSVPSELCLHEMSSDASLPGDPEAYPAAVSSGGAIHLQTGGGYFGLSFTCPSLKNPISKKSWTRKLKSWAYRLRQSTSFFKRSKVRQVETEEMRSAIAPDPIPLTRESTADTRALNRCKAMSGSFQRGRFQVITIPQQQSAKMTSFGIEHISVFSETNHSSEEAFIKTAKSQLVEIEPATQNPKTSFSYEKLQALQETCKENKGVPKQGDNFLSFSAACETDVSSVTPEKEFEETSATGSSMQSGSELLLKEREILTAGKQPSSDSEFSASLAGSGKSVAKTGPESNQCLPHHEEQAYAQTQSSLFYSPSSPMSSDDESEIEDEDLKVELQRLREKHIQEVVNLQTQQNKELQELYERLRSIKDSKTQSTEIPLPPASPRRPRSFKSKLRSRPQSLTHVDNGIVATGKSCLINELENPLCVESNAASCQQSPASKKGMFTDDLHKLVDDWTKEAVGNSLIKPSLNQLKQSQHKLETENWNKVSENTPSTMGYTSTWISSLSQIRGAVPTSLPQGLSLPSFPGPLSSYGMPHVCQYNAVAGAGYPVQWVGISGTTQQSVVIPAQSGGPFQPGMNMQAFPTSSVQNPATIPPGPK
In a further experiment the target is FGFR4 (Homo sapiens, UniProt P22455). Summed up: as §1
The target of the next experiment is AKT2 (Homo sapiens, UniProt P31751). Summed up: as §1
The next experiment addresses T1, TRKA (Homo sapiens, UniProt P04629).
T1 construct: gene NTRK1
The gist of the method:
as §1

Another experiment deals with T2, MINK (Homo sapiens, UniProt Q8N4C8).
T2 construct: gene MINK1
T2 sequence (Q8N4C8 whole entry): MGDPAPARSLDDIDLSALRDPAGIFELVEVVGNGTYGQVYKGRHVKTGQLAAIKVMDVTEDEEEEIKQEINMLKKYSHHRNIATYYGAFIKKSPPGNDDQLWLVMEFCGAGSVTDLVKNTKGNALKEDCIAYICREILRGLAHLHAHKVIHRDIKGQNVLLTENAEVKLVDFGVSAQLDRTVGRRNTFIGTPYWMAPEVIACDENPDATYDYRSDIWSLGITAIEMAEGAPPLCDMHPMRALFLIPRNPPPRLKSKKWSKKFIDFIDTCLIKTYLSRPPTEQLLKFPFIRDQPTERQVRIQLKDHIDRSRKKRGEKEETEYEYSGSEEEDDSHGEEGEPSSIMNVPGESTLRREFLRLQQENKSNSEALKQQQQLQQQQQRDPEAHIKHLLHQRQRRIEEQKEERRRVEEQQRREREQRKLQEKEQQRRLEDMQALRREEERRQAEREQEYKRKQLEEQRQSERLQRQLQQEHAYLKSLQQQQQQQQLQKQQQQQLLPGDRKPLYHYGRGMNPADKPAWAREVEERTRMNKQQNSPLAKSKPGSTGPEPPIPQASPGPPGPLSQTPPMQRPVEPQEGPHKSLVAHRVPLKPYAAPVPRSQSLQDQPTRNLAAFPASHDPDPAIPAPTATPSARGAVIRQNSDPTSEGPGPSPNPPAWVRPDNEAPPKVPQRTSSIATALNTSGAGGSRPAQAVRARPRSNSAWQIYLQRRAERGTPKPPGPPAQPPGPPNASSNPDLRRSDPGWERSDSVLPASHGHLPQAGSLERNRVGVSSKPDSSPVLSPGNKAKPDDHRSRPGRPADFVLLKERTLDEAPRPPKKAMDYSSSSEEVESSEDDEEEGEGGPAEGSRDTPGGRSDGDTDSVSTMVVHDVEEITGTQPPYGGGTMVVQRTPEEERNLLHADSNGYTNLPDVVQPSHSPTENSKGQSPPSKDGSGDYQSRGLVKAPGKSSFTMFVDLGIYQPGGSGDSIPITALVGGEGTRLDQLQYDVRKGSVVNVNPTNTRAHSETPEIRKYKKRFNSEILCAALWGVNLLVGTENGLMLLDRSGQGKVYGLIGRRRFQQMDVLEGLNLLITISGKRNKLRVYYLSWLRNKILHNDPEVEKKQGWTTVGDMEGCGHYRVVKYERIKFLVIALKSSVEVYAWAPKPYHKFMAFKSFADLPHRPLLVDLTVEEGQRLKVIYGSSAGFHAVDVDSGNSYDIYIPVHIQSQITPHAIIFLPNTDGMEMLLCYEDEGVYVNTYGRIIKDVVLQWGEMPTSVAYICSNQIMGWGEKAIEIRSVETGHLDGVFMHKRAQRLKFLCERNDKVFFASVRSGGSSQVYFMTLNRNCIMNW
The gist of the method: as §1

In experiment [1] the target is T3, ABL1(Q252H)-phosphorylated (Homo sapiens, UniProt P00519, Q252H).
T3 construct: phosphorylated
Summed up:
as §1

In the next experiment the target is VRK2 (Homo sapiens, UniProt Q86Y07). The gist of the method:
as §1

For a further experiment, the target named is CSK (Homo sapiens, UniProt P41240). Summed up: as §1
Sequence of CSK (P41240 whole entry): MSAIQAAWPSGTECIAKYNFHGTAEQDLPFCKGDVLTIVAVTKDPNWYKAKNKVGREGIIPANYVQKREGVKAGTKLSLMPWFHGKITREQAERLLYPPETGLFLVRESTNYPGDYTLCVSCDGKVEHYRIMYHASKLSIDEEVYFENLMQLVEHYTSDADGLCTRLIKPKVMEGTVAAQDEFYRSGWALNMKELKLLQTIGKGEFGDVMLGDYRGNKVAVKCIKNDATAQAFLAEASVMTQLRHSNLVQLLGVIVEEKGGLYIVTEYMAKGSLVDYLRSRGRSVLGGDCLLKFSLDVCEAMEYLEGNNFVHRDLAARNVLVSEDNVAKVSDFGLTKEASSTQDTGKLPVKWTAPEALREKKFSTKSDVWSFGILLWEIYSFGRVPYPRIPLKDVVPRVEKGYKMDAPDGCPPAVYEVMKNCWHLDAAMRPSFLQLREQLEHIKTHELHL
The target of the next experiment is TGFBR2 (Homo sapiens, UniProt P37173). The gist of the method: as §1
Sequence of TGFBR2 (P37173 whole entry): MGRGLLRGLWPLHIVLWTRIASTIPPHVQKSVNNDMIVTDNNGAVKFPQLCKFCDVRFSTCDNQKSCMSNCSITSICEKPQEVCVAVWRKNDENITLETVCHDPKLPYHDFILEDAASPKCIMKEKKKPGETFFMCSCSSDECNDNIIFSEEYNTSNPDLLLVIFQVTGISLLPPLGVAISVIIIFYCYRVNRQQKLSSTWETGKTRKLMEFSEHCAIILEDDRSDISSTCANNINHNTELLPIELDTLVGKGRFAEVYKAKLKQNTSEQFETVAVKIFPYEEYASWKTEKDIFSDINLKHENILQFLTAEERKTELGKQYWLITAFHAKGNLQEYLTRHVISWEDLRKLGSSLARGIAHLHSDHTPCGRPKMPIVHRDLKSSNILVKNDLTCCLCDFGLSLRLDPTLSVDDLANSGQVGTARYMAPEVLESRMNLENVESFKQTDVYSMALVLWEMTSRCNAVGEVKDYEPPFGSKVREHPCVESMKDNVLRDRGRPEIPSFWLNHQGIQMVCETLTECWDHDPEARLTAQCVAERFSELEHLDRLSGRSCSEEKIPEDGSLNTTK
The next experiment concerns the target T4, PIP5K2B (Homo sapiens, UniProt P78356).
T4 construct: gene PIP4K2B
The gist of the method: as §1

Another experiment has as its target TAOK3 (Homo sapiens, UniProt Q9H2K8). Summed up:
as §1

In another experiment the target is FGFR2 (Homo sapiens, UniProt P21802). The gist of the method: as §1
The target in a further experiment is T5, YANK1 (Homo sapiens, UniProt Q8WU08).
T5 construct: gene STK32A
The gist of the method: as §1

For a further experiment, the target named is PIK3CG (Homo sapiens, UniProt P48736). The gist of the method: as §1
In a further experiment the target is PKMYT1 (Homo sapiens, UniProt Q99640). The gist of the method: as §1
The target of a further experiment is MAST1 (Homo sapiens, UniProt Q9Y2H9). Summed up: as §1
The target in a further experiment is STK33 (Homo sapiens, UniProt Q9BYT3). The gist of the method: as §1
Another experiment addresses MAP4K2 (Homo sapiens, UniProt Q12851). The gist of the method: as §1
The target in the next experiment is FRK (Homo sapiens, UniProt P42685). Summed up:
as §1

The next experiment deals with PIK3CA(I800L) (Homo sapiens, UniProt P42336, I800L). The gist of the method: as §1

Like-named read-outs stand apart in the source and are kept apart here.

T4 sequence (P78356 whole entry): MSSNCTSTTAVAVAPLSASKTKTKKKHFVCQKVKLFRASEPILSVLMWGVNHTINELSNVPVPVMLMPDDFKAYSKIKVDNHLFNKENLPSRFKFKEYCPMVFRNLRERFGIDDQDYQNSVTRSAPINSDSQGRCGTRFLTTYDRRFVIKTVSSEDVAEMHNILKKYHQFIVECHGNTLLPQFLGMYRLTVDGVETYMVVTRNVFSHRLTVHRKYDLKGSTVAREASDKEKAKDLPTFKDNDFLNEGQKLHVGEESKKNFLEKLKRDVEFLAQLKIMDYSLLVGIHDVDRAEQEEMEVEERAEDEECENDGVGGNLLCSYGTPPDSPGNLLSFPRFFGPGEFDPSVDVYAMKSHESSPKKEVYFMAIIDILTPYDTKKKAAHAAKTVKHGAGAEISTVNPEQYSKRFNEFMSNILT
Sequence of FRK (P42685 whole entry): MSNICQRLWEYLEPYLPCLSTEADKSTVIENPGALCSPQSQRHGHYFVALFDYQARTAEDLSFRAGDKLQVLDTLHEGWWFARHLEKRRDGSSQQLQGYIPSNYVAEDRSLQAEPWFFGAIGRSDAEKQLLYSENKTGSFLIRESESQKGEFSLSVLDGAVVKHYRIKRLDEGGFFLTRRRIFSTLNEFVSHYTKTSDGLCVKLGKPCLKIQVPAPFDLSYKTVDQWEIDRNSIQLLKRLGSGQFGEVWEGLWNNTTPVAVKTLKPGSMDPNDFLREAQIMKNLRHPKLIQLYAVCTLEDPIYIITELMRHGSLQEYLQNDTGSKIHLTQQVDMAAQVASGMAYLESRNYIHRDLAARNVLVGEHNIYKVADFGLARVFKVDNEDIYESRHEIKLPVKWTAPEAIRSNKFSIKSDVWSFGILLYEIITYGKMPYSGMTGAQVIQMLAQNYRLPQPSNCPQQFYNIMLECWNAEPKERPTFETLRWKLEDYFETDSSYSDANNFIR

With `Cc1ncccc1Oc1sc(C(N)=O)c2c1-c1c(cnn1C)CC2` [T-474, 1-methyl-8-((2-methylpyridin-3-yl)oxy)-4,5-dihydro-1H-thieno[3,4-g]indazole-6-carboxamide], the remaining binding at 0.3 µM on PAK2 was 88%; on PIK3CA(H1047L), 100%; at WNK3, 100%; on FGFR4 it was 97%; at AKT2, 100%; at TRKA it was 95%. Moreover, the remaining binding at 0.3 µM on MINK stood at 100%; in experiment [1] it was 89%; at VRK2, 100%; at CSK, 86%; on TGFBR2, 78%; on PIP5K2B it was 100%. Moreover, the remaining binding at 0.3 µM on TAOK3 came to 88%; on FGFR2 it was 100%; on YANK1, 100%; on PIK3CG it was 88%; on PKMYT1, 71%; at MAST1, 100%. Moreover, the remaining binding at 0.3 µM at STK33 is 86%; at MAP4K2 it was 100%; on FRK, 97%; on PIK3CA(I800L), 77%.
For the molecule `O=C(/C=C/c1cnccc1-c1ccc(F)cc1)Nc1ccc(CCc2nnco2)cc1` [T-418, (2E)-3-(4-(4-fluorophenyl)pyridin-3-yl)-N-(4-(2-(1,3,4-oxadiazol-2-yl)ethyl)phenyl)acrylamide], the remaining binding at 0.3 µM at PAK2 (sheet T-418) was 70%; at PIK3CA(H1047L) (sheet T-418), 100%; on WNK3 (sheet T-418) it was 100%; at FGFR4 (sheet T-418) it was 80%; on AKT2 (sheet T-418) it was 100%; on TRKA (sheet T-418) it was 92%. For the same molecule, the remaining binding at 0.3 µM was found to be 80% on MINK (sheet T-418); 84% in experiment [1] (sheet T-418); 100% on VRK2 (sheet T-418); 86% at CSK (sheet T-418); 84% on TGFBR2 (sheet T-418); 94% on PIP5K2B (sheet T-418). In addition, the remaining binding at 0.3 µM on TAOK3 (sheet T-418) was 90%; on FGFR2 (sheet T-418) it was 90%; on YANK1 (sheet T-418), 100%; at PIK3CG (sheet T-418) it was 100%; at PKMYT1 (sheet T-418), 73%; at MAST1 (sheet T-418) it was 100%. The remaining binding at 0.3 µM on STK33 (sheet T-418) turned out to be 91%; on MAP4K2 (sheet T-418), 100%; at FRK (sheet T-418), 97%; at PIK3CA(I800L) (sheet T-418), 51%.
